Experimental data published in patent US8247437B2, “N-hydroxyamide derivatives and use thereof” (Merck Serono SA, priority 2004, dated 2012).
Where two headings read alike, the source gives them in different places.

Tests used:
[1] = biological target: 92 kDa gelatinase (MMP-9) (Homo sapiens, UniProt P14780); assay: MMP-9 enzyme inhibition assay (coumarin-labeled peptide substrate McaPLGLDpaAR); type: biochemical; details: read-out: MMP-9 IC50
Procedure: Compounds of the invention were tested for inhibitory activity against 92 kDa gelatinase (MMP-9) in an assay using a coumarin-labeled peptide substrate, (7-methoxycoumarin-4-yl)acetyl-Pro-Leu-Gly-Leu-(3-[2,4-dinitrophenyl]-L-2,3diaminopropionyl)-Ala-Arg-NH2 (McaPLGLDpaAR) (Knight et al, FEBS Lett. 1992; 263-266).
(§1) Stock solutions were made up as follows: Assay Butter: 100 mM Tris-HCl pH 7.6 is containing 100 mM NaCl, 10 mM CaCl2, and 0.05% Brij 35.
(§2) Substrate: 0.4 mM McaPLGLDpaAR (from Bachem) (0.437 mg/ml) stock solution in 100% DMSO (stored at −20° C.). Dilute to 8 μM in assay butter.
(§3) Enzyme: Recombinant human 92 kDa gelatinase (MMP-9; APMA (4-aminophenyl mercuric acetate)-activated if necessary) appropriately diluted in assay butter.
(§4) Test Compounds were prepared initially as 10 mM compound solution in 100% DMSO, diluted to 1 mM in 100% DMSO, then serially diluted 3-fold in 100% DMSO across columns 1-10 of a 96-well microtitre plate Assay concentration range, 100 μM (column 1) to 5.1 nM (column 10).
(§5) The assay was performed in a total volume of 100 μL per well in 96-well microfilm plates. Activated enzyme (20 μL) was added to the wells followed by 20 μL of assay butter. Appropriate concentrations of test compounds dissolved in 10 μL of DMSO were then added followed by 50 μL of McaPLGLDpaAR (8 μM, prepared by dilution of DMSO stock in assay butter). For each as say ten concentrations of test compound were examined in duplicate. Control wells lack either enzyme or test compound. The reactions were incubated at 37° C. for 2 hours. The fluorescence at 405 nm was measured immediately with an SLT Fluostar fluorometer (SL T Labinstruments GmbH, Grödig, Austria) using 320 nm excitation, without stopping the reaction.
(§6) The effect of the test compound was determined from the dose response curve generated by the 10 duplicate concentrations of inhibitor. The IC50 (the concentration of compound required to give a 50% decrease in enzyme activity) was obtained by fitting data to the equation, Y=a+((b−a)/(1+(c/X)^d)). (Y=inhibition achieved for a particular dose; X=the dose in nM; a=minimum y or zero % inhibition; b=maximum y or 100% inhibition; c=is the IC50; d=is the slope). The result was rounded to one significant figure.

collagenase (MMP-1) = biological target: T1, collagenase (MMP-1) (Homo sapiens, UniProt P03956); assay: MMP-1 enzyme inhibition assay (coumarin-labelled peptide substrate McaPLGLDpaAR); type: biochemical; details: read-out: MMP-1 IC50
T1 sequence (P03956 100-469): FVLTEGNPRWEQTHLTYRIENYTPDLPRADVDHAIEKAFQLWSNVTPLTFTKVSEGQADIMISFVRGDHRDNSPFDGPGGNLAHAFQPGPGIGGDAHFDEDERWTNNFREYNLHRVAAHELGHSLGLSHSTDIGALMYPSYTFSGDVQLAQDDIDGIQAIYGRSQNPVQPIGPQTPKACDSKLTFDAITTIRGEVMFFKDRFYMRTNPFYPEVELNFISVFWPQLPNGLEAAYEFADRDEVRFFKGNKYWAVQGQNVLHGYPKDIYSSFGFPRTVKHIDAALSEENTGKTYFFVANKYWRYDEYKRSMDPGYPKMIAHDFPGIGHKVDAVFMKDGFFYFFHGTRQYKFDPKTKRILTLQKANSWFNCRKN
Procedure: as §1, §2, §3, §4, §5, §6
(§7) Compounds of the invention were tested for inhibitory activity against collagenase (MMP-1) in an assay using a coumarin-labelled peptide substrate, (7-methoxycoumarin-4-yl)acetyl-Pro-Leu-Gly-Leu-(3-[2,4-dinitrophenyl]-L-2,3diaminopropionyl)-Ala-Arg-NH2 (Mca PLGLDpaAR) (Knight et al, 1992, above). The protocol for this assay was as described for the MMP-9 assay above.

metalloelastase (MMP-12) = metalloelastase (MMP-12) (Homo sapiens, UniProt P39900); assay: MMP-12 enzyme inhibition assay (coumarin-labelled peptide substrate McaPLGLDpaAR); type: biochemical; details: read-out: MMP-12 IC50
Procedure: as §1, §2, §3, §4, §5, §6
Compounds of the invention were tested for inhibitory activity against metalloelastase (MMP-12) in an assay using a coumarin-labelled peptide substrate, (7-methoxycoumarin-4-yl)acetyl-Pro-Leu-Gly-Leu-(3-[2,4-dinitrophenyl]-L-2,3-diaminopropionyl)-Ala-Arg-NH2 (McaPLGLDpaAR) (Knight et al, 1992, above). The protocol for this assay was as described for the MMP-9 assay above.

gelatinase A (MMP-2) = biological target: T2, gelatinase A (MMP-2) (Homo sapiens, UniProt P08253); assay: MMP-2 enzyme inhibition assay (coumarin-labelled peptide substrate McaPLGLDpaAR); type: biochemical; details: read-out: MMP-2 IC50
T2 sequence (P08253 110-660): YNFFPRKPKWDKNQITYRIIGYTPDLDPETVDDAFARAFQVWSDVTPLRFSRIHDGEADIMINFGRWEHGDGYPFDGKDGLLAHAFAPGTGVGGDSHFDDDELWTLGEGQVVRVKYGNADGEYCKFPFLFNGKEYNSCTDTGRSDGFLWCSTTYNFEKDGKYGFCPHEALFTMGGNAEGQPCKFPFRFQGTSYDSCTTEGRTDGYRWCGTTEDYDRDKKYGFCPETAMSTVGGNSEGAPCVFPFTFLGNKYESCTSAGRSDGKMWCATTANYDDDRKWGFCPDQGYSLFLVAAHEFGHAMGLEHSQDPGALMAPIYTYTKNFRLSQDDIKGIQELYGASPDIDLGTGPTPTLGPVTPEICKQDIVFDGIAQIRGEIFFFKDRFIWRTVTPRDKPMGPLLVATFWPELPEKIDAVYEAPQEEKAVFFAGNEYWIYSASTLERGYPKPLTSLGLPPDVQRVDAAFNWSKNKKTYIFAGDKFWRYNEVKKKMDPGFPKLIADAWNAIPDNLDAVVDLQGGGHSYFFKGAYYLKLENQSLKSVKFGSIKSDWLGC
Procedure: as §1, §2, §3, §4, §5, §6
as §7, with “gelatinase A (MMP-2)” for “collagenase (MMP-1)”

[2] = system: IL-2-induced peritoneal recruitment of lymphocytes; assay: IL-2-induced peritoneal recruitment of lymphocytes; type: in vivo, C3H/HEN mice; details: mice, dose 1 mg/kg po, 15 min prior to IL-2; cells collected 24 h after IL-2; Table 3, Formula (I)
Procedure: Administration of IL-2 intraperitoneally causes migration of lymphocytes into the intraperitoneal cavity. This is a model for the cellular migration that occurs during inflammation.
C3H/HEN mice (Elevage Janvier, France) were intraperitoneally injected with IL-2 (Serono Pharmaceutical Research Institute, 20 μg/kg, in saline).
Compounds of the invention were suspended in 0.5% carboxymethylcellulose (CMC)/0.25% tween-20 and were administered by s.c. or p.o. route (10 ml/kg) 15 min prior to administration of IL-2.
Twenty-four hours after administration of IL-2, peritoneal white blood cells were collected by 3 successive lavages of the peritoneal cavity with 5 ml phosphate buffered saline (PBS)-1 mM EDTA (+4° C.). The suspension was centrifuged (1700 g×10 min at +4° C.). The resulting pellet was suspended in 1 ml PBS-1 mM EDTA.
Lymphocytes were identified and counted using a Beckman/Coulter counter.
The animals were divided into 6 groups (6 mice each group):
Group 1: (baseline) received 0.5% CMC/0.25% tween-20 (vehicle of compound of the invention) and saline (vehicle of IL-2);
Group 2: (control IL-2) received 0.5% CMC/0.25% tween-20 and injection of IL-2;
Group 3: Experimental group (Compound of the invention Dose 1) received a compound of the invention and injection of IL-2;
Group 4: Experimental group (Compound of the invention Dose 2) received a compound of the invention and injection of IL-2;
Group 5: Experimental group (Compound of the invention Dose 3) received a compound of the invention and injection of IL-2;
Group 6: Reference group received reference compound dexamethasone and injection of IL-2.
Inhibition of lymphocyte recruitment was calculated as follows:
Where Ly 1=Number of lymphocytes in group 1 (E3/μl), Ly 2=Number of lymphocytes in group 2 (E3/μl), Ly X=Number of lymphocytes in group X (3-5) (E3/μl).

[3] = Table 1, compounds of Formula (I)
[4] = Table 2, compounds of Formula (VI)

92 kDa gelatinase (MMP-9), sequence (P14780 107-707 limits assumed): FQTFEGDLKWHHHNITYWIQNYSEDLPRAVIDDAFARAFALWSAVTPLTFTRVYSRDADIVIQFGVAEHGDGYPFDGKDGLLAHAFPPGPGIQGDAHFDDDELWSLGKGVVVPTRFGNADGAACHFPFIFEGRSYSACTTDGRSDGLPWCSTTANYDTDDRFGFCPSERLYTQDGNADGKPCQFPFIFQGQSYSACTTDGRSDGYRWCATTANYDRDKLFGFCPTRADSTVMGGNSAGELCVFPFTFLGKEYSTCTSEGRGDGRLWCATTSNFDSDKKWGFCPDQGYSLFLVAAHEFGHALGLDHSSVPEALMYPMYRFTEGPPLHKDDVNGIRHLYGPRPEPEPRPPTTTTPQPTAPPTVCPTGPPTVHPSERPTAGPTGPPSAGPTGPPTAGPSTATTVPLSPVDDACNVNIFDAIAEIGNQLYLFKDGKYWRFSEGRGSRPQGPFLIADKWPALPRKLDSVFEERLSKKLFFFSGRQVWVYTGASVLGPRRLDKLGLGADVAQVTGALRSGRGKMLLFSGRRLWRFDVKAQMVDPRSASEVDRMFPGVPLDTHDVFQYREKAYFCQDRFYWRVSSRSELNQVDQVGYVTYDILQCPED
metalloelastase (MMP-12), sequence (P39900 106-470): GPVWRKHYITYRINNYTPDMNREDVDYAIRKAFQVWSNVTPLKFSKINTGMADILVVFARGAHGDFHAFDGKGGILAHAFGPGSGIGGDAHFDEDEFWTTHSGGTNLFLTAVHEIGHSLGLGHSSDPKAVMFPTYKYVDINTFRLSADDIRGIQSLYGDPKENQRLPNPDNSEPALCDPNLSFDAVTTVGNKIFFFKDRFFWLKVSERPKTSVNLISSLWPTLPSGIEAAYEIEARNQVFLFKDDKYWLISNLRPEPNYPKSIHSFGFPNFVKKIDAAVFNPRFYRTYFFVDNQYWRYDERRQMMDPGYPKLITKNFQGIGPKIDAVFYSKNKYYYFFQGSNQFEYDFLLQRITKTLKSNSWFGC

IC50 [1, 3] | IC50 (collagenase (MMP-1); [3]) | IC50 (metalloelastase (MMP-12); [3]) | IC50 (gelatinase A (MMP-2); [3]) | IC50 [1, 4] | IC50 (collagenase (MMP-1); [4]) | IC50 (metalloelastase (MMP-12); [4]) | IC50 (gelatinase A (MMP-2); [4]) | SMILES | % inhibition of IL-2-induced peritoneal recruitment of lymphocytes [2]
233 nM | > 5 µM | 33 nM | 136 nM |  |  |  |  | CCOc1ccc(CCCC(C(=O)N2CCN(c3ccccc3F)C[C@H]2C)[C@H](O)C(=O)NO)cc1 (mixture of isomers) [Example 9, (2S,3S)-6-(4-ethoxyphenyl)-3-{[(2R)-4-(2-fluorophenyl)-2-methylpiperazin-1-yl]carbonyl}-N,2-dihydroxyhexanamide] | 
5 nM | 0.418 µM | 4 nM | 3 nM |  |  |  |  | CC(C)C[C@H](C(=O)N1CCN(c2ccccn2)CC1)[C@H](O)C(=O)NO [Example 1, (2S,3S)-N,2-dihydroxy-5-methyl-3-{[4-(2-pyridinyl)-1-piperazinyl]carbonyl}hexanamide] | 
7 nM | 0.876 µM | 103 nM | 17 nM |  |  |  |  | CC(C)C[C@H](C(=O)N1CCN(c2nc(-c3ccccc3)ns2)CC1)[C@H](O)C(=O)NO [Example 2, (2S,3S)-N,2-dihydroxy-5-methyl-3-{[4-(3-phenyl-1,2,4-thiadiazol-5-yl)-1-piperazinyl]carbonyl}hexanamide] | 
285 nM | > 5 µM | 31 nM | 42 nM |  |  |  |  | CC(C)C[C@H](C(=O)N1CCN(c2cc(C(F)(F)F)ccn2)C[C@H]1C)[C@H](O)C(=O)NO [Example 3, (2S,3S)-N,2-dihydroxy-5-methyl-3-({(2R)-2-methyl-4-[4-(trifluoromethyl)pyridin-2-yl]piperazin-1-yl}carbonyl)hexanamide] | 
 |  |  |  |  |  |  |  | CCOc1ccc(CCC[C@H](C(=O)N2CCN(c3ccccn3)C[C@@H]2C)[C@H](O)C(=O)NO)cc1 [Example 7, (2S,3S)-6-(4-ethoxyphenyl)-N,2-dihydroxy-3-{[(2S)-2-methyl-4-(2-pyridinyl)piperazinyl]carbonyl}hexanamide] | 46%
585 nM | > 5 µM | 4 nM | 89 nM |  |  |  |  | COc1ccc(N2CCN(C(=O)[C@@H](CC(C)C)[C@@H](O)C(=O)NO)CC2)cc1 [Example 14, (2R,3S)-N,2-dihydroxy-3-{[4-(4-methoxyphenyl)piperazin-1-yl]carbonyl}-5-methylhexanamide] | 
 |  |  |  | 45 nM | > 5 µM | 17 nM | 47 nM | CCOc1ccc(CCC[C@@H](C(=O)N2CCC(Oc3ccccn3)CC2)[C@H](O)C(=O)NO)cc1 [Example 22] | 
 |  |  |  | 133 nM | > 5 µM | 34 nM | 179 nM | CCOc1ccc(CCC[C@@H](C(=O)N2CCC(Nc3ccc(O)cc3)CC2)[C@H](O)C(=O)NO)cc1 [Example 46, (2S,3R)-6-(4-ethoxyphenyl)-N,2-dihydroxy-3-({4-[(4-hydroxyphenyl)amino]piperidin-1-yl}carbonyl)hexanamide] | 
41 nM | > 5 µM | 6 nM | 4.8 nM |  |  |  |  | CC(C)C[C@H](C(=O)N1CCN(c2noc(-c3ccccc3)n2)CC1)[C@@H](O)C(=O)NO [Example 56, (2R,3S)-N,2-dihydroxy-5-methyl-3-{[4-(5-phenyl-1,2,4-oxadiazol-3-yl)piperazin-1-yl]-carbonyl}hexanamide] | 
194 nM | > 5 µM | 7 nM | 38 nM |  |  |  |  | O=C(NO)[C@H](O)[C@H](CCOCc1ccccc1)C(=O)N1CCN(c2ccc(-c3ccccc3)cc2)CC1 [Example 58, 3-[(4-biphenyl-4-ylpiperazin-1-yl)carbonyl]-3,4-dideoxy-1-(hydroxyamino)-5-O-(phenylmethyl)-L-threo-pentose] | 
49 nM | 1.15 µM | < 1 nM | 3 nM |  |  |  |  | C[C@@H]1CN(c2ccc(OC(F)(F)F)cc2)CCN1C(=O)[C@@H](CC1CCCC1)[C@H](O)C(=O)NO [Example 91, (2S,3S)-3-(cyclopentylmethyl)-N,2-dihydroxy-4-{(2R)-2-methyl-4-[4-(trifluoromethoxy)phenyl]piperazin-1-yl}-4-oxobutanamide] | 
